Results: patent US5753658A, “Quinolonecarboxylic acid derivatives” (Senju Pharmaceutical Co., Ltd., priority 1993, dated 1998)
In brackets after ≈: the same amount, converted by molar mass.

Key:
[1] = tested on: P. aeruginosa IFO 13275; assay: Antibacterial test (minimum inhibitory concentration), method designated by Japan Society of Chemotherapy; type: cell-based; conditions: Pseudomonas aeruginosa, IFO13275; P. aeruginosa IFO 13275, Gram's stain -, 10^6 cells/ml
Experimental: (§1) Antibacterial test was carried out according to the method designated by Japan Society of Chemotherapy in Chemotherapy, 29 (1): 76 (1981), the content of which is herein incorporated by reference. Each of the compounds obtained in Examples 2, 4 and 7 is tested. As a control drug, 1-ethyl-6,8-difluoro-1,4-dihydro-4-oxo-7-(1-piperazinyl)-3-quinolinecarboxylic acid was used, which is represented by formula IV when R1 is hydrogen, R3 is ethyl, R4 and R5 are hydrogen, and Z is piperazinyl.
(§2) The results are shown in Table 1 in terms of minimum inhibitory concentration (MIC).

[2] = tested on: S. aureus IFO 13276; assay: as above; type: cell-based, Staphylococcus aureus; conditions: for MIC: Staphylococcus aureus, IFO13276, S. aureus IFO 13276, Gram's stain +, 10^6 cells/ml
Experimental: as §1, §2

MIC [1] | MIC [2] | SMILES | antibacterial activity compared with the control drug (in words) ([2]; against S. aureus, versus control drug)
< 0.025 mg/L | 0.2 mg/L (≈ 0.406 µM) | CCn1cc(C(=O)O)c(=O)c2cc(F)c(N3CCN(S(=O)(=O)c4ccc(N)cc4)CC3)c(F)c21 [Example 2, 1-Ethyl-6,8-difluoro-1,4-dihydro-4-oxo-7-[4-(4-aminobenzenesulfonyl)-1-piperazinyl]-3-quinolinecarboxylic acid] | more potent antibacterial activity than the control drug
< 0.025 mg/L | 0.78 mg/L (≈ 1.59 µM) | CCn1cc(C(=O)O)c(=O)c2cc(F)c(N3CCN(S(=O)(=O)c4ccc(C)cc4)CC3)c(F)c21 [Example 4, 1-Ethyl-6,8-difluoro-1,4-dihydro-4-oxo-7-[4-(4-methylbenzenesulfonyl)-1-piperazinyl]-3-quinolinecarboxylic acid] | –
< 0.025 mg/L | 0.78 mg/L (≈ 1.57 µM) | CCn1cc(C(=O)O)c(=O)c2cc(F)c(N3CCN(S(=O)(=O)c4ccc(F)cc4)CC3)c(F)c21 [Example 7, 1-Ethyl-6,8-difluoro-1,4-dihydro-4-oxo-7-[4-(4-fluorobenzenesulfonyl)-1-piperazinyl]-3-quinolinecarboxylic acid] | –

SMILES | MIC [1] | MIC [2] | antibacterial activity compared with the control drug (in words) ([2]; against S. aureus, versus control drug)
CCn1cc(C(=O)O)c(=O)c2cc(F)c(N3CCNCC3)c(F)c21 [Control drug, 1-ethyl-6,8-difluoro-1,4-dihydro-4-oxo-7-(1-piperazinyl)-3-quinolinecarboxylic acid, reference compound] | < 0.025 mg/L | 0.39 mg/L (≈ 1.16 µM) | –
